This experiment relates to HCV replicon I389luc-ubi-neo/NS3-3′/ET in ET (Huh-lucubineo-ET) cells; screening for HCV RNA dependent RNA polymerase. The experiment can be described thus: Replicon Assay (luciferase, ET cell line Huh-lucubineo-ET). In kind it is cell-based. To be noted: Hepatitis C virus; inhibition of replication relative to no compound control; test concentration of 10 μM according to the fitted equation; luciferase 48-72 hours. In short, it runs like this:
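Huh-derived ET cells stably carrying an I389luc-ubi-neo/NS3-3′/ET HCV replicon with a luciferase-ubiquitin-neomycin phosphotransferase fusion and adaptive NS3-5B mutations were cultured in DMEM with 10% fetal calf serum and 250 μg/mL G418. Cells were seeded at 0.5-1.0×10^4 cells/well in 96 well plates and given compound after 24 hrs. Luciferase was read 48-72 hours later with Bright-Glo reagents, and replication inhibition was expressed relative to untreated controls.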
`O=C(NC1CCCC1)c1ccc(-c2csc(NC(=O)[C@@H]3CCCN3C(=O)OCc3ccccc3)n2)cc1` [Compound 5100, 2-[4-(4-Cyclopentylcarbamoyl-phenyl)-thiazol-2-ylcarbamoyl]-pyrrolidine-1-carboxylic acid benzyl ester] gave an inhibition at 10 µM of 99.1%. The compound `O=C(Nc1nc(-c2ccc(Cl)cc2Cl)cs1)[C@@H]1CCCN1C(=O)OCc1ccccc1` [Compound 5101, 2-[4-(2,4-Dichloro-phenyl)-thiazol-2-ylcarbamoyl]-pyrrolidine-1-carboxylic acid benzyl ester] displayed an inhibition at 10 µM of 69.2%. The compound `CC(C)Cc1ccc(-c2csc(NC(=O)[C@@H]3CCCN3C(=O)OCc3ccccc3)n2)cc1` [Compound 5102, 2-[4-(4-Isobutyl-phenyl)-thiazol-2-ylcarbamoyl]-pyrrolidine-1-carboxylic acid benzyl ester] registered an inhibition at 10 µM of 9.8%. Then `O=C(Nc1nc(-c2ccccc2Cl)cs1)[C@@H]1CCCN1C(=O)OCc1ccccc1` [Compound 5103, 2-[4-(2-Chloro-phenyl)-thiazol-2-ylcarbamoyl]-pyrrolidine-1-carboxylic acid benzyl ester], with 99.3%.

Consider `O=C(Nc1nc(-c2ccc(-n3nncc3-c3ccccc3)cc2)cs1)[C@@H]1CCCN1C(=O)OCc1ccccc1` [Compound 5104, 2-{4-[4-(5-Phenyl-[1,2,3]triazol-1-yl)-phenyl]-thiazol-2-ylcarbamoyl}-pyrrolidine-1-carboxylic acid benzyl ester], for which at 10 µM the inhibition was 97.3%.

`CNC(=O)c1ccc(-c2csc(NC(=O)[C@@H]3CCCN3C(=O)OCc3ccccc3)n2)cc1` [Compound 5105, 2-[4-(4-Methylcarbamoyl-phenyl)-thiazol-2-ylcarbamoyl]-pyrrolidine-1-carboxylic acid benzyl ester] yielded an inhibition at 10 µM of 100%. Then `O=C(O)c1ccc(-c2csc(NC(=O)[C@@H]3CCCN3C(=O)OCc3ccccc3)n2)cc1` [Compound 5106, 2-[4-(4-Carboxy-phenyl)-thiazol-2-ylcarbamoyl]-pyrrolidine-1-carboxylic acid benzyl ester], with 46.3%; and `O=C(Nc1cccc(-c2cnc(NC(=O)[C@@H]3CCCN3C(=O)OCc3ccccc3)s2)c1)C1CC1` [Compound 5108, 2-{5-[3-(Cyclopropanecarbonyl-amino)-phenyl]-thiazol-2-ylcarbamoyl}-pyrrolidine-1-carboxylic acid benzyl ester], with 98.9%. Then `O=C(Nc1ccccc1)c1ccc(-c2csc(NC(=O)C3CCCN3C(=O)OCc3ccccc3)n2)cc1` (stereo not shown) [Compound 5109, 2-[4-(4-Phenylcarbamoyl-phenyl)-thiazol-2-ylcarbamoyl]-pyrrolidine-1-carboxylic acid benzyl ester], with 100%; and `O=C(Nc1ccc(-c2cnc(NC(=O)[C@@H]3CCCN3C(=O)OCc3ccccc3)s2)cc1)C1CCCC1` [Compound 5110, 2-{5-[4-(Cyclopentanecarbonyl-amino)-phenyl]-thiazol-2-ylcarbamoyl}-pyrrolidine-1-carboxylic acid benzyl ester], with 89.6%; and `Nc1ccc(-c2cnc(NC(=O)[C@@H]3CCCN3C(=O)OCc3ccccc3)s2)cc1` [Compound 5111, 2-[5-(4-Amino-phenyl)-thiazol-2-ylcarbamoyl]-pyrrolidine-1-carboxylic acid benzyl ester], with 40%. `O=C(Nc1cccc(-c2cnc(NC(=O)[C@@H]3CCCN3C(=O)OCc3ccccc3)s2)c1)c1ccccc1` [Compound 5113, 2-[5-(3-Benzoylamino-phenyl)-thiazol-2-ylcarbamoyl]-pyrrolidine-1-carboxylic acid benzyl ester] registered an inhibition at 10 µM of 99.7%. `Nc1cccc(-c2cnc(NC(=O)[C@@H]3CCCN3C(=O)OCc3ccccc3)s2)c1` [Compound 5114, 2-[5-(3-Amino-phenyl)-thiazol-2-ylcarbamoyl]-pyrrolidine-1-carboxylic acid benzyl ester] returned an inhibition at 10 µM of 25%.

In the case of `O=C(Nc1cccc(-c2cnc(NC(=O)[C@@H]3CCCN3C(=O)OCc3ccccc3)s2)c1)C1CCCC1` [Compound 5116, 2-{5-[3-(Cyclopentanecarbonyl-amino)-phenyl]-thiazol-2-ylcarbamoyl}-pyrrolidine-1-carboxylic acid benzyl ester], the inhibition at 10 µM turned out to be 100%.

As to `CC(C)NC(=O)c1ccc(-c2csc(NC(=O)C3CCCN3C(=O)OCc3ccccc3)n2)cc1` (stereo not shown) [Compound 5117, 2-[4-(4-Isopropylcarbamoyl-phenyl)-thiazol-2-ylcarbamoyl]-pyrrolidine-1-carboxylic acid benzyl ester], the inhibition at 10 µM came out at 99.8%. Then `O=C(NC1CC1)c1ccc(-c2csc(NC(=O)[C@@H]3CCN3C(=O)OCc3ccccc3)n2)cc1` [Compound 5301, 2-[4-(4-Cyclopropylcarbamoyl-phenyl)-thiazol-2-ylcarbamoyl]-azetidine-1-carboxylic acid benzyl ester], with 100%. As for `O=C(Nc1ccncc1)c1ccc(-c2csc(NC(=O)[C@@H]3CCCN3C(=O)OCc3ccccc3)n2)cc1` [Compound 5302, 2-{4-[4-(Pyridin-4-ylcarbamoyl)-phenyl]-thiazol-2-ylcarbamoyl}-pyrrolidine-1-carboxylic acid benzyl ester], the inhibition at 10 µM stood at 100%. For `O=C(NC1CCCCC1)c1ccc(-c2csc(NC(=O)[C@@H]3CCCN3C(=O)OCc3ccccc3)n2)cc1` [Compound 5303, 2-[4-(4-Cyclohexylcarbamoyl-phenyl)-thiazol-2-ylcarbamoyl]-pyrrolidine-1-carboxylic acid benzyl ester] the value was 100%. For `N#Cc1ccc(-c2csc(NC(=O)[C@@H]3CCCN3C(=O)OCc3ccccc3)n2)cc1` [Compound 5305, 2-[4-(4-Cyanophenyl)-thiazol-2-ylcarbamoyl]-pyrrolidine-1-carboxylic acid benzyl ester] the value was 76.3%; for `CC(C)(CN1CCOCC1)NC(=O)c1ccc(-c2csc(NC(=O)[C@@H]3CCCN3C(=O)OCc3ccccc3)n2)cc1` [Compound 5306, 2-{4-[4-(1,1-Dimethyl-2-morpholin-4-yl-ethylcarbamoyl)-phenyl]-thiazol-2-ylcarbamoyl}-pyrrolidine-1-carboxylic acid benzyl ester], 100%. Then `O=C(NCCN1CCCCC1)c1ccc(-c2csc(NC(=O)[C@@H]3CCCN3C(=O)OCc3ccccc3)n2)cc1` [Compound 5307, 2-{4-[4-(2-Piperidin-1-yl-ethylcarbamoyl)-phenyl]-thiazol-2-ylcarbamoyl}-pyrrolidine-1-carboxylic acid benzyl ester], with 100%; and `O=C(Nc1nc(-c2ccc(C(=S)NC3CC3)cc2)cs1)[C@@H]1CCCN1C(=O)OCc1ccccc1` [Compound 5308, 2-[4-(4-Cyclopropylthiocarbamoyl-phenyl)-thiazol-2-ylcarbamoyl]-pyrrolidine-1-carboxylic acid benzyl ester], with 100%; and `CC(=O)c1ccc(-c2csc(NC(=O)[C@@H]3CCCN3C(=O)OCc3ccccc3)n2)cc1` [Compound 5309, 2-[4-(4-Acetyl-phenyl)-thiazol-2-ylcarbamoyl]-pyrrolidine-1-carboxylic acid benzyl ester], with 99.5%. In turn, `O=C(Nc1ccc(-c2csc(NC(=O)[C@@H]3C[C@@H](O)CN3C(=O)OCc3ccccc3)n2)cc1)C1CC1` [Compound 5310, 2-{4-[4-(Cyclopropanecarbonyl-amino)-phenyl]-thiazol-2-ylcarbamoyl}-4-hydroxy-pyrrolidine-1-carboxylic acid benzyl ester] had an inhibition at 10 µM of 99.3%. The compound `O=C(NC1CC1)c1ccc(-c2csc(NC(=O)C3COCN3C(=O)OCc3ccccc3)n2)cc1` (stereo not shown) [Compound 5311, 4-[4-(4-Cyclopropylcarbamoyl-phenyl)-thiazol-2-ylcarbamoyl]-oxazolidine-3-carboxylic acid benzyl ester] gave an inhibition at 10 µM of 99.7%. In turn, `O=C(NC1CC1)c1ccc(-c2csc(NC(=O)[C@@H]3COCN3C(=O)OCc3ccccc3)n2)cc1` [Compound 5313, 4-[4-(4-Cyclopropylcarbamoyl-phenyl)-thiazol-2-ylcarbamoyl]-oxazolidine-3-carboxylic acid benzyl ester] displayed an inhibition at 10 µM of 100%. For `NC(=O)Nc1ccc(-c2csc(NC(=O)[C@@H]3CCCN3C(=O)OCc3ccccc3)n2)cc1` [Compound 5314, 2-[4-(4-Ureido-phenyl)-thiazol-2-ylcarbamoyl]-pyrrolidine-1-carboxylic acid benzyl ester] the value was 100%; for `O=C(NC1CC1)c1ccc(-c2csc(NC(=O)[C@@H]3CCCN3C(=O)Cc3cc(F)cc(F)c3)n2)cc1` [Compound 5315, 1-[2-(3,5-Difluoro-phenyl)-acetyl]-pyrrolidine-2-carboxylic acid [4-(4-cyclopropylcarbamoyl-phenyl)-thiazol-2-yl]-amide], 99.7%. Then `O=C(NC1CC1)c1ccc(-c2csc(NC(=O)[C@@H]3CCCN3CCc3ccccc3)n2)cc1` [Compound 5316, 1-Phenethyl-pyrrolidine-2-carboxylic acid [4-(4-cyclopropylcarbamoyl-phenyl)-thiazol-2-yl]-amide], with 3.19%; and `O=C(NCCCO)c1ccc(-c2csc(NC(=O)[C@@H]3CCCN3C(=O)OCc3ccccc3)n2)cc1` [Compound 5317, 2-{4-[4-(3-Hydroxy-propylcarbamoyl)-phenyl]-thiazol-2-ylcarbamoyl}-pyrrolidine-1-carboxylic acid benzyl ester], with 100%; and `O=C(Nc1nc(-c2cccc(NCC3CCCC3)c2)cs1)[C@@H]1CCCN1C(=O)OCc1ccccc1` [Compound 5319, 2-{4-[3-(Cyclopentylmethyl-amino)-phenyl]-thiazol-2-ylcarbamoyl}-pyrrolidine-1-carboxylic acid benzyl ester], with 67.4%.

The values above are taken from patent US7595398B2, “N-(5-membered aromatic ring)-amido anti-viral compounds” (SmithKline Beecham Corporation, priority 2005, dated 2009).
